This data set in a line: TIMS collisional cross section (CCS, N2) of the lipid ion; higher = larger ion cross section. The conditions noted are these: ionization mode: positive, one isomer drawn.

± gives the standard deviation of the averaged measurements.

As for `CCCCCCCC/C=C\CCCCCCCC(=O)OC[C@@H](O)COP(=O)(O)OCCN` [LPE 18:1] (ion (formula + adduct): [C23H46NO7P+H] 1+), the “TIMS collisional cross section” value reads like this: (sample type: HeLa) 216.4 Å²; (sample type: Liver) 217 ± 2 Å²; (sample type: plasma) 216.93 ± 1.3 Å². As to `CC/C=C\C/C=C\C/C=C\C/C=C\C/C=C\CCCCCC(=O)OC[C@@H](COC(=O)CCCCCCC/C=C\C/C=C\CCCCC)OC(=O)CCC/C=C\C/C=C\C/C=C\C/C=C\CCCCC` [TG 18:2_20:4_22:5] (ion (formula + adduct): [C63H100O6+NH4] 1+), the “TIMS collisional cross section” value (sample type: Liver) is given as 333 Å². In the case of `CCCCCCCCCCCCC/C=C/[C@@H](O)[C@H](CO[C@@H]1OC(CO)[C@@H](O[C@@H]2OC(CO)[C@H](O)[C@H](O)C2O)[C@H](O)C1O)NC(=O)CCCCCCCCCCCCCCC` (stereo partly drawn) [GlcCer d18:1_16:0] (ion (formula + adduct): [C46H87NO13+H] 1+), the “TIMS collisional cross section” value (sample type: HeLa) is 304.1 Å². For the molecule `CCCCCCCCCCC/C=C\CCCCC(=O)OC[C@@H](O)COP(=O)([O-])OCC[N+](C)(C)C` [LPC 18:1_0:0] (ion (formula + adduct): [C26H52NO7P+H] 1+), the “TIMS collisional cross section” value reads like this: (sample type: HeLa) 233.6 Å²; (sample type: Liver) 232.95 ± 1.1 Å²; (sample type: plasma) 232.8 ± 0.42 Å².

As for `CCCCC/C=C\C/C=C\CCCCCCCC(=O)OC[C@@H](COC(=O)CCCCCCCCCCC)OC(=O)CCCCCCCCCCCCC` [TG 12:0_14:0_18:2] (ion (formula + adduct): [C47H86O6+NH4] 1+), the “TIMS collisional cross section” value (sample type: Liver) is 295.4 Å² and the “TIMS collisional cross section” value (sample type: plasma) was 295.8 Å². With `CCCCCCCCCCCCCCCCCCCCCC(=O)OC[C@@H](COC(=O)CCCCCCCCCCCCCCC)OC(=O)CCCCCCCCCCCCCCCCCC` [TG 16:0_19:0_22:0] (ion (formula + adduct): [C60H116O6+NH4] 1+), the “TIMS collisional cross section” value reads like this: (sample type: HeLa) 341.2 Å²; (sample type: Liver) 340.8 Å²; (sample type: plasma) 340.7 Å². For the molecule `CC/C=C\C/C=C\C/C=C\C/C=C\C/C=C\C/C=C\CCC(=O)OC[C@@H](COC(=O)CCCCCCCCCCCC)OC(=O)CCCCCCCCCCCCC` [TG 13:0_14:0_22:6] (ion (formula + adduct): [C52H88O6+NH4] 1+), the “TIMS collisional cross section” value (sample type: Liver) came to 305.2 Å². As to `CCCCCCCCCCCCCCCC(=O)OC[C@@H](COC(=O)CCCCCCCCCCCC)OC(=O)CCCCCCCCCCCCC` [TG 13:0_14:0_16:0] (ion (formula + adduct): [C46H88O6+NH4] 1+), the “TIMS collisional cross section” value (sample type: HeLa) is listed as 298.2 Å², the “TIMS collisional cross section” value (sample type: Liver) is 298.5 Å² and the “TIMS collisional cross section” value (sample type: plasma) was found to be 298.4 ± 0.14 Å². Turning to `CC/C=C\C/C=C\C/C=C\C/C=C\C/C=C\C/C=C\CCC(=O)O[C@H](COC(=O)CCCCCCCCC/C=C\CCCCCC)COP(=O)([O-])OCC[N+](C)(C)C` [PC 18:1_22:6@] (ion (formula + adduct): [C48H82NO8P+H] 1+), where the note is “sample type: plasma”, the “TIMS collisional cross section” value was 296.5 Å². With `CCCCC/C=C\C/C=C\C/C=C\C/C=C\CCCC(=O)OC[C@@H](COC(=O)CCCCCCC/C=C\CCCCCC)OC(=O)CCCCCCCCCCCCCCCCC` [TG 16:1_18:0_20:4] (ion (formula + adduct): [C57H100O6+NH4] 1+), the “TIMS collisional cross section” value (sample type: Liver) is 324.7 Å². Take `CCCCC/C=C\C/C=C\C/C=C\C/C=C\CCCC(=O)O[C@H](COC(=O)CCCCCCCCCCCCCCCC)COP(=O)([O-])OCC[N+](C)(C)C` [PC 17:0_20:4] (ion (formula + adduct): [C45H82NO8P+H] 1+): for the setting “sample type: plasma”, the “TIMS collisional cross section” value stood at 292.9 Å². As to `CCCCCCCCCCCCCC/C=C\OC[C@H](COP(=O)(O)OCCN)OC(=O)CCCCCCCCCCCCCCC` [PE P- 16:0_16:0] (ion (formula + adduct): [C37H74NO7P+H] 1+), under “sample type: HeLa”, the “TIMS collisional cross section” value was found to be 272 Å². For `CCCC/C=C\CCCCCCCCCCOC[C@@H](O)COP(=O)([O-])OCC[N+](C)(C)C` [LPC O- 16:1] (ion (formula + adduct): [C24H50NO6P+H] 1+), the “TIMS collisional cross section” value reads like this: (sample type: HeLa) 225.4 Å²; (sample type: plasma) 224.8 Å². Take `CC/C=C\C/C=C\C/C=C\C/C=C\C/C=C\C/C=C\CCC(=O)OC[C@@H](COC(=O)CCCCCCCCCCCCC)OC(=O)CCCCCCC/C=C\CCCCCC` [TG 14:0_16:1_22:6] (ion (formula + adduct): [C55H92O6+NH4] 1+): the “TIMS collisional cross section” value (sample type: HeLa) was found to be 315 Å². As to `CCCCC/C=C\C/C=C\CCCCCCCC(=O)O[C@H](COC(=O)CCCCCCC/C=C\CCCCCCCC)COC(=O)CCCCCCCCCCCCCCCCCCC` [TG 18:1_18:2_20:0] (ion (formula + adduct): [C59H108O6+NH4] 1+), the “TIMS collisional cross section” value (sample type: Liver) is 332.3 Å². Still for that read-out and setting: the same measure for `CC/C=C\C/C=C\C/C=C\CCCCCCCC(=O)OC[C@@H](COC(=O)CCCCCCCCCCCCCCCCC)OC(=O)CCCCCCC/C=C\CCCCCCCC` [TG 18:0_18:1_18:3] (ion (formula + adduct): [C57H102O6+NH4] 1+): 324.1 Å². As to `CCCCCC/C=C\CCCCCCCC(=O)O[C@H](COC(=O)CCCCCCCCCCCCC)COP(=O)([O-])OCC[N+](C)(C)C` [PC 14:0_16:1] (ion (formula + adduct): [C38H74NO8P+H] 1+), the “TIMS collisional cross section” value (sample type: HeLa) worked out at 275.8 Å². Turning to `CCCCC/C=C\C/C=C\CCCCCCCC(=O)OC[C@@H](COC(=O)CCCCCCCCCCC)OC(=O)CCCCCCC/C=C\CCCCCC` [TG 12:0_16:1_18:2] (ion (formula + adduct): [C49H88O6+NH4] 1+), under “sample type: Liver”, the “TIMS collisional cross section” value is given as 301.1 Å². For the molecule `CCCCC/C=C\C/C=C\C/C=C\C/C=C\CCCCCC(=O)OC[C@@H](COC(=O)CCCCCCC/C=C\CCCCCCCC)OC(=O)CCCCCCC/C=C\C/C=C\CCCCC` [TG 18:1_18:2_22:4] (ion (formula + adduct): [C61H104O6+NH4] 1+), the “TIMS collisional cross section” value (sample type: Liver) is on record as 332.5 Å² and the “TIMS collisional cross section” value (sample type: plasma) stood at 332.1 Å². For the molecule `CCCCCCCCCCCCCCCC(=O)OC[C@@H](COC(=O)CCCCCCCCCCCCC)OC(=O)CCCCCCCCCCCCCCC` [TG 14:0_16:0_16:0] (ion (formula + adduct): [C49H94O6+NH4] 1+), the “TIMS collisional cross section” value is, setting by setting: (sample type: HeLa) 308.5 Å²; (sample type: Liver) 308.4 Å²; (sample type: plasma) 308.1 ± 0.22 Å². As to `CCCCC/C=C\C/C=C\C/C=C\C/C=C\CCCC(=O)OC[C@@H](O)COP(=O)(O)O` [LPA 20:4_0:0] (ion (formula + adduct): [C23H39O7P+H] 1+), the “TIMS collisional cross section” value (sample type: plasma) amounted to 205 Å². With `CCCCC/C=C\C/C=C\CCCCCCCC(=O)OC[C@@H](COC(=O)CCCCCCCCCCCC)OC(=O)CCCCCCC/C=C\CCCCCC` [TG 13:0_16:1_18:2] (ion (formula + adduct): [C50H90O6+NH4] 1+), the “TIMS collisional cross section” value (sample type: plasma) was 305.3 Å². As for `CCCCCCCCCCCCCCCCCCCC(=O)OC[C@@H](COC(=O)CCCCCCCCCCCCC)OC(=O)CCCCCCCCCCCCCCCCC` [TG 14:0_18:0_20:0] (ion (formula + adduct): [C55H106O6+NH4] 1+), the “TIMS collisional cross section” value runs as follows: (sample type: HeLa) 326.4 Å²; (sample type: plasma) 326.1 Å².

Consider `CC/C=C/C=C/C=C/C=C/CCCCCCCC(=O)OC[C@@H](O)COP(=O)([O-])OCC[N+](C)(C)C` [LPC 18:4] (ion (formula + adduct): [C26H46NO7P+H] 1+), for which, where the note is “sample type: plasma”, the “TIMS collisional cross section” value turned out to be 220.8 Å². As to `CCCCC/C=C\C/C=C\C/C=C\CCCCCCC(=O)OC[C@@H](COC(=O)CCCCCCC/C=C\CCCCCCCC)OC(=O)CCCCCCCCC/C=C\CCCCCCCC` [TG 18:1_20:1_20:3] (ion (formula + adduct): [C61H108O6+NH4] 1+), the “TIMS collisional cross section” value (sample type: HeLa) was 336.4 Å². Turning to `CCCCC/C=C\C/C=C\CCCCCCCC(=O)OC[C@@H](COC(=O)CCCCCCC/C=C\CCCCCC)OC(=O)CCCCCCC/C=C\CCCCCCCC` [TG 16:1_18:1_18:2] (ion (formula + adduct): [C55H98O6+NH4] 1+), the “TIMS collisional cross section” value reads like this: (sample type: HeLa) 318.2 Å²; (sample type: Liver) 317.35 ± 0.35 Å²; (sample type: plasma) 317.4 ± 0.42 Å². Consider `CCCCCC/C=C\CCCCCCCC(=O)OC[C@H](COP(=O)(O)OCCN)OC(=O)CCCCCCCCCCCCCCC` [PE 16:1_16:0] (ion (formula + adduct): [C37H72NO8P+H] 1+), for which the “TIMS collisional cross section” value (sample type: HeLa) came to 268.7 Å². The same measure, in the same setting: the same measure for `CCCCCC/C=C\CCCCCCCC(=O)OC[C@H](COP(=O)(O)OCCN)OC(=O)CCCCCCC/C=C\CCCCCC` [PE 16:1_16:1] (ion (formula + adduct): [C37H70NO8P+Na] 1+): 266.4 Å²; for `CCCCCCCC/C=C\CCCCCCCC(=O)OC[C@H](COP(=O)(O)OCCN)OC(=O)CCCCCCCCCCCCCCCC` [PE 18:1_17:0@] (ion (formula + adduct): [C40H78NO8P+H] 1+): 279 Å². As to `CCCCCCCC/C=C\CCCCCCCC(=O)OC[C@H](COC(=O)CCCCCCCCCCCCCCCCCCCC)OC(=O)CCCCCCC/C=C\CCCCCCCC` [TG 18:1_18:1_21:0] (ion (formula + adduct): [C60H112O6+NH4] 1+), for the setting “sample type: plasma”, the “TIMS collisional cross section” value amounted to 336.2 Å². Take `CCCCCCCCCCCCCCCCCC(=O)O[C@H](COC(=O)CCCCCCCCCCCCCCC)COP(=O)([O-])OCC[N+](C)(C)C` [PC 16:0_18:0] (ion (formula + adduct): [C42H84NO8P+H] 1+): the “TIMS collisional cross section” value (sample type: Liver) is listed as 291.4 Å². Take `CCCCCCCC/C=C\CCCCCCCCCC(=O)OC[C@@H](COC(=O)CCCCCCCCCCCCCCC)OC(=O)CCCCCCCCCCCCCCC` [TG 16:0_16:0_20:1] (ion (formula + adduct): [C55H104O6+NH4] 1+): the “TIMS collisional cross section” value (sample type: HeLa) came to 324.7 Å².
